Assay results as given in patent US8551921B2, “Method for determining the toxicity of an environmental or chemical sample” (priority 2000, dated 2013).
Values joined by “and” are separate entries in the source; they are usually repeats but may differ in a detail not shown here. Equal entries are not always repeated. Structures can show the parent of a compound that is named as a salt. Where two headings read alike, the source gives them in different places.

What was measured:
Daphnia = details: IC50-values, established assay; cited from earlier work
[1] = tested on: Photobacterium phosphoreum; details: IC50-values, established assay; cited from earlier work
[2] = tested on: 11 different microbial strains; details: for Toxic fingerprint: MTC value, Mean: mean of all 11 MTC values
Procedure: (§1) • dispense 150 μl of growth medium with indicator in each well • add a concentration gradient of the chemical to be tested to rows B-H in a MARA plate (i.e. an indicator device according to the present invention) • incubate for 16 h • read absorbance values; and • analyse with software.
(§2) Microbial responses to different chemicals was estimated by kinetic measurements of their growth using the Labsystem automated IEMS reader. A computer software that could monitor incubation temperatures, reading intervals, and automatically transfer OD data to a computer was developed. A growth medium containing 0.05% peptone, 0.011% bromothymol blue (BTB), 1% sodium chloride and 0.3% glucose was added to all wells. The glucose acts as a carbon source, and during growth the microorganism will break down the glucose and produce acids, that will turn the initially blue indicator to yellow. Each microplate contains 12 columns and 8 rows, and thus in each plate, 11 lyophilized microbial strains were used (one for each column, the 12th column was used as negative control). […] In order to avoid drying out of the plates during the incubation, one drop of sterile mineral oil was added to each well. The plate was then incubated in the IEMS spectrophotometer and the absorbance value from each well was measured every second hour during 48 h.
(§3) The overall toxicity of the chemical compound can be described either as the mean of all 11 MTC values (shown in column 12), or as the minimum value for all 11 microbial strains used in the assay (marked with bold in the table).
Concentrations are given in mg/ml.

E. coli = details: IC50-values, established assay; cited from earlier work
[3] = tested on: β-proteobacterium A22 (Kalmar 200); experiment: MARA indicator device toxic fingerprint, microorganism no. 5; details: Microbial Toxic Concentration; incubation time 16 h
Procedure: as §1, §2, §3

[4] = tested on: Staphylococcus epidermidis (Karin12); experiment: MARA indicator device toxic fingerprint, microorganism no. 11; details: Microbial Toxic Concentration; incubation time 16 h
Procedure: as §1, §2, §3

[5] = tested on: JG2 (strain of marine origin); details: Microbial Toxic Concentration; incubation time 16 h
Procedure: as §1, §2, §3

ObanF = details: Microbial Toxic Concentration; incubation time 16 h
Procedure: as §1, §2, §3

[6] = tested on: Aeromonas hydriphila HG3 (RV 5.1); details: Microbial Toxic Concentration; incubation time 16 h
Procedure: as §1, §2, §3

[7] = tested on: JG4 (strain of marine origin); details: Microbial Toxic Concentration; incubation time 16 h
Procedure: as §1, §2, §3

[8] = tested on: JG1 (strain of marine origin); details: Microbial Toxic Concentration; incubation time 16 h
Procedure: as §1, §2, §3

[9] = tested on: Saccaromyces ceriviciae (bakers yeast); details: Microbial Toxic Concentration; incubation time 16 h
Procedure: as §1, §2, §3

[10] = tested on: JG3 (strain of marine origin); experiment: MARA indicator device toxic fingerprint, microorganism no. 3; details: Microbial Toxic Concentration; incubation time 16 h
Procedure: as §1, §2, §3

microorganism no. 7 = experiment: MARA indicator device toxic fingerprint, microorganism no. 7; details: Microbial Toxic Concentration; incubation time 16 h
Procedure: as §1, §2, §3

E. coli MZ 480 = experiment: MARA indicator device toxic fingerprint, microorganism no. 8; details: Microbial Toxic Concentration; incubation time 16 h
Procedure: as §1, §2, §3

[11] = 11 microbial strains (panel, species not named)
[12] = MTC value of the strain showing the highest sensitivity
[13] = mean MTC for the 11 microbial strains

Row | SMILES | Inhibitory concentrations by method: Daphnia (Daphnia) | Inhibitory concentrations by method: Microtox [1] | Inhibitory concentrations by method: E. coli (E. coli) | Toxic fingerprint: MTC value for microorganism no. 5 [3] | Toxic fingerprint: MTC value for microorganism no. 11 [4] | Toxic fingerprint: MTC value for microorganism no. 2 [5] | Toxic fingerprint: MTC value for microorganism no. 6 [6] | Toxic fingerprint: MTC value for microorganism no. 10 [9] | Toxic fingerprint: MTC value, Mean [2] | Toxic fingerprint: MTC value for microorganism no. 7 (microorganism no. 7) | Toxic fingerprint: MTC value for microorganism no. 8 (E. coli MZ 480) | also measured
1 | OCCO [Ethylene Glycol] | 74.625 mg/mL | 167.064 mg/mL | 270.945 mg/mL |  |  |  |  |  |  |  |  | Inhibitory concentrations by method: MARA MTCmin [2]: 11.775 mg/mL; Inhibitory concentrations by method: MARA MTCmean [2, 11]: 28.400 mg/mL
2 | O=[N+]([O-])[O-].O=[N+]([O-])[O-].[Ba+2] [Barium nitrate] | 0.208 mg/mL | 29.318 mg/mL |  | 1.090 | 0.466 | 0.205 | 0.713 | 0.453 | 1.420 | 1.110 | 1.360 | Toxic fingerprint: MTC value for microorganism no. 9 (ObanF): 1.490; Toxic fingerprint: MTC value for microorganism no. 4 [7]: 5.620; Toxic fingerprint: MTC value for microorganism no. 1 [8]: 2.520; Toxic fingerprint: MTC value for microorganism no. 3 [10]: 0.908; Inhibitory concentrations by method: MARA MTCmin [2, 12]: 0.453 mg/mL; Inhibitory concentrations by method: MARA MTCmean [2, 13]: 1.420 mg/mL; mean toxicity levels (MTC values) ([2]; text to FIG. 7): 1.4 mg/L
3 | [Cl-].[Cl-].[Mg+2] [Magnesium Chloride] |  |  |  | 14.800 | 4.580 | 9.660 | 13.500 | 22.700 | 13.900 | 12.100 | 24.100 | Toxic fingerprint: MTC value for microorganism no. 9 (ObanF): 8.830; Toxic fingerprint: MTC value for microorganism no. 4 [7]: 7.500; Toxic fingerprint: MTC value for microorganism no. 1 [8]: 28.800; Toxic fingerprint: MTC value for microorganism no. 3 [10]: 7.420
4 | CSc1ccc2c(c1)N(CCC1CCCCN1C)c1ccccc1S2 (stereo not shown) [Tioridazin HCl] |  |  |  | 0.029 | 0.006 | 0.017 | 0.027 | 0.014 | 0.028 | 0.042 | 0.006 | Inhibitory concentrations by method: MARA MTCmin [2, 12]: 0.006 mg/mL; Inhibitory concentrations by method: MARA MTCmean [2, 13]: 0.028 mg/mL
5 | CN1[C@@H]2CC[C@H]1CC(OC(=O)C(CO)c1ccccc1)C2.CN1[C@@H]2CC[C@H]1CC(OC(=O)C(CO)c1ccccc1)C2.O=S(=O)(O)O (stereo partly shown) [Atropin Sulphate] | 0.347 mg/mL |  | 56.294 mg/mL |  |  |  |  |  |  |  |  | 
6 | Cc1ccccc1C(OCCN(C)C)c1ccccc1 (stereo not shown) [Orphenadrin HCl] |  |  |  |  |  |  |  |  |  |  |  | Toxic fingerprint: MTC value, Mean ([2]; HCl): 0.131 and 0.146
7 | Oc1ccccc1 [Phenol] | 0.007 mg/mL | 0.133 mg/mL | 2.258 mg/mL |  |  |  |  |  |  |  |  | Inhibitory concentrations by method: MARA MTCmin [2]: 0.412 mg/mL; Inhibitory concentrations by method: MARA MTCmean [2, 11]: 0.831 mg/mL
